Measured values published in patent EP4413991A1, “PEPTIDE FOR COGNITIVE IMPROVEMENT” (Consejo Superior De Investigaciones Científicas, priority 2023, dated 2024).

Experiments:
Type in all cases: in vivo, C57BL/6 mice
GluN2B = GluN2B immunoreactivity in molecular layer of dentate gyrus; settings: single intrahippocampal injection, versus vehicle
Method: (§1) Different experimental group of old mice (~20 months of age) were randomly injected on the hilus region of both brain hemispheres with vehicle (PBS or destillated water) or with one of four different molecules: Vitamin B12 (50 mg/ml; Vet one, ref: 510218), S-(5'-Adenosyl)-L-methionine chloride (0,25 mg/ml; Sigma, ref: A7007), folic acid (0,25 mg/ml; Sigma, ref: F7876-10G) or synthetic FRa binding peptide, peptide having amino acid sequence SEQ ID NO: 1, (2,5 mg/ml and 5 mg/ml, diluted in PBS; Abyntec). The pH of Vitamin B12, methionine or folic acid were adjusted to ~7 to avoid negative effects due to overly acidic medium. One week after intracerebral injections, mice were assessed with behavioural (open field trial) and memory tests (novel object recognition) to study potential functional effects of different metabolites on central nervous system. Two weeks after surgeries mice were finally perfused just after finalized Y maze test performing.
(§2) After anesthesia with isofluorane, mice were secured in a stereotaxic frame (Kopf). Holes were drilled bilaterally in the skull at the injection sites (one per hemisphere) by microdrill with 0.5 mm drill bit. […]
For GluN2B antibodies, the quantification was carried out with the imaged program by measuring the percentage of area occupied by the receptor immunoreactivity in the molecular layer of dentate gyrus. […]

Dnmt1 = assay: Western blot of Dnmt1 in hippocampal extracts; settings: western blot densitometry; versus vehicle
Method: as §1
(§3) After anesthesia with isofluorane, mice were secured in a stereotaxic frame (Kopf). […]
Mice were anesthetized with an intraperitoneal pentobarbital injection (Dolethal, 60 mg/kg body weight) and transcardially perfused with saline. […] Serial parasagittal sections ([…] thick) were cryoprotected in 30% sucrose solution in PB and stored in ethylene glycol/glycerol at […] until they were analyzed. […]

[1] = tested on: 5-hydroxymethylcytosine (5hmc); assay: DNA hydroxymethylation in hippocampal neuronal layers; settings: versus vehicle
Method: as §1
as §2, with “bit. Stereotaxic coordinates used for intrahippocampal injections were as follows (from bregma): anterior-posterior 2.2, lateral 1.4, dorsoventral 2.0.” for “bit.”

old mice (~20 months) [2] = assay: Y maze test for spatial memory; settings: percentage of time in novel arm; single intrahippocampal injection; two weeks after surgery; versus vehicle
Method: as §1, with “performing. […]” for “performing.”
To assess spatial memory, an Y maze test based on published protocols with modifications (Kraeuter AK, et al. The Y-Maze for Assessment of Spatial Working and Reference Memory in Mice. Methods Mol Biol. 2019;1916:105-111. ) was performed. […] The number of entries into and the time spent in each arm, were registered from video recordings and analysed by AnyMaze software. […]

[3] = tested on: neuronal precursors cells; assay: Adult neurogenesis markers in dentate gyrus, immunofluorescence cell density; settings: subgranular zone; unique dose hippocampal injection; versus vehicle
Method: as §1
(§4) After anesthesia with isofluorane, mice were secured in a stereotaxic frame (Kopf). Holes were drilled bilaterally in the skull at the injection sites (one per hemisphere) by microdrill with 0.5 mm drill bit. Stereotaxic coordinates used for intrahippocampal injections were as follows (from bregma): anterior-posterior 2.2, lateral 1.4, dorsoventral 2.0. A 33-gauge needle Hamilton syringe coupled to a syring pump controller mounted to the stereotaxic frame was used to inject 2µl of vehicle or metabolites at each site. Injections occurred at a rate of 0.25 µl/min, after which the needle was left in place for an additional 3 min, stopping another 3 minute in the halfway. After injections were completed, the skin was sutured and the animals were allowed to recover for 1 h on a heating pad before returning to the home cage. Mice remained in the home cage for an additional 1 week before the start of behavioral testing, being sacrificed 2 weeks after surgery.
Mice received three injections each 2 hours (200 ul/injection, in alternative sides of body) of 5-Chloro-2'-deoxy-Uridine (CldU, Sigma reference C6891; i.p. 42.75 mg/Kg bw) one week after cranial surgery and microinjections of solutions. In this way we were able to follow the effects of treatment in the proliferation of new cells at the subgranular zone, essential zone for neurogenesis process. […]
(§5) Quantifications for density of DCX/Blbp/CIdU-immunoreactive positive cells were performed by counting in four different consecutive medial brain sections the number of cells localized in each whole DG (distinguishing between SGZ and GCL) and the adjacent hilus region. For perineuronal nets of extracellular matrix, positive units labelled with WFA were counted in the dentate gyrus (including granular cell layer and hilus) from three different consecutive medial brain sections. […]

5-methycytosine (5mC) = assay: DNA methylation immunofluorescence in hippocampal neurons; settings: versus vehicle
Method: as §1
as §4, with “After injections were completed, the skin was sutured and the animals were allowed to recover for 1 h on a heating pad before returning to the home cage. Mice remained in the home cage for an additional 1 week before the start of behavioral testing, being sacrificed 2 weeks after surgery.” left out
(§6) For 5mC, H3K9me3 and H4K20me3 antibodies, acquisition confocal settings (laser intensity, gain, pinhole) were kept constant for all images, which were captured in the same confocal session. […] The area above the threshold was then measured in Fiji and the mean fluorescence in the ROI was calculated and compared between vehicle and folate experimental groups.

old mice (~20 months) [4] = assay: Novel object recognition test (NOR), memory index; settings: single intrahippocampal injection, versus vehicle; for recognition memory at short term: 2 hours after training trial; for recognition memory at long-term: 5 days after training trial
Method: as §1, §4
Both open field (OF) and novel object recognition (NOR) tests were performed as described previously (Rodríguez-Matellán A, et al., In Vivo Reprogramming Ameliorates Aging Features in Dentate Gyrus Cells and Improves Memory in Mice. Stem Cell Reports. 2020 Nov 10;15(5):1056-1066. ). Locomotor activity as well as anxiety and depression-like behaviours in old mice were evaluated using OF. This test was used as habituation of NOR test. In brief, on the first day, the mice were placed individually for 10 min in a 45x45-cm plastic box with vertical opaque walls. Each session was recorded and different data like distance, speed, immobile time and time on center square of the box were analysed with Anymaze software. On the second day, mice were placed in the same box for 5 min, allowing them to explore two identical objects: A and B (two black rooks). Both objects were placed on the long axis of the cage, each 13 cm from the cage end. After each exposure, the objects and the cage were wiped with 70% ethanol to eliminate odors which potentially could condition successive mice behaviour. Two hours after the familiarization trial, each mouse was released into the box with the same object previously used (object A) and a new one (object C, a tower of coloured plastic pieces), instead of the object B (short-term memory test). The position of object C was the same as that of object B in the familiarization trial. The mice were given 5 min to explore the box. Five days later, the mice were released again into the box, with object A in the same position and another new object (object D, a falcon tube filled with wood chips) in the same position of the object C in the previous test. Again, animals were allowed 5 min to explore the box (Long-term memory test). Animals were considered to show recognition when their head was <2 cm from the object.
The memory index (Ml) was used to measure recognition memory performance. […]

perineuronal nets (PNN) = assay: Perineuronal nets (PNN) density labeled with WFA in dentate gyrus; settings: single intrahippocampal injection, versus vehicle-injected aged mice
Method: as §1, with “Two weeks after surgeries mice were finally perfused just after finalized Y maze test performing.” left out
as §5

H3K9me3 = assay: Histone methylation immunofluorescence in dentate gyrus; settings: 14 days since injection, versus vehicle
Method: as §1, §3, §6

H4K20me3 = assay: as above; settings: 14 days since injection, versus vehicle
Method: as §1, §3, §6

old mice (~20 months) [5] = assay: Open field test (OF); settings: single bilateral intrahippocampal (hilus) injection, 2µl per site; tested one week after surgery; versus vehicle
Method: as §1, §4
Both open field (OF) and novel object recognition (NOR) tests were performed as described previously (Rodríguez-Matellán A, et al., In Vivo Reprogramming Ameliorates Aging Features in Dentate Gyrus Cells and Improves Memory in Mice. Stem Cell Reports. 2020 Nov 10;15(5):1056-1066. ). Locomotor activity as well as anxiety and depression-like behaviours in old mice were evaluated using OF. This test was used as habituation of NOR test. In brief, on the first day, the mice were placed individually for 10 min in a 45x45-cm plastic box with vertical opaque walls. Each session was recorded and different data like distance, speed, immobile time and time on center square of the box were analysed with Anymaze software. On the second day, mice were placed in the same box for 5 min, allowing them to explore two identical objects: A and B (two black rooks). […]

Sox2 = Sox2 expression in dentate gyrus, immunoreactivity; settings: different regions of dentate gyrus (hilus, GCL, SGZ); unique-dose injection in aged mice; versus vehicle
Method: as §1
as §2, with “bit. Stereotaxic coordinates used for intrahippocampal injections were as follows (from bregma): anterior-posterior 2.2, lateral 1.4, dorsoventral 2.0.” for “bit.”

Compound	expression of GluN2B immunoreactivity (percentage of area occupied) (GluN2B)	expression of Dnmt1 hippocampal levels (Dnmt1)	level of 5hmc [1]	spatial memory (old mice (~20 months) [2])	doublecortin-ir cell density [3]	early neuronal precursor like blbp-ir cells density [3]	new born CIdU-ir cells density [3]	one-week-old neurons (double Dcx/CldU-ir cells) density [3]	level of 5mC, mean intensity (5-methycytosine (5mC); granular neuronal layer of dentate gyrus (P=0.0132))	level of 5mC, mean intensity (5-methycytosine (5mC); pyramidal layer of CA1 (P-value=0.06))	level of 5mC, mean intensity (5-methycytosine (5mC); pyramidal layer of CA3 (P-value=0.05))	recognition memory at short term (old mice (~20 months) [4])	recognition memory at long-term (old mice (~20 months) [4])	PNN density labeled with WFA (perineuronal nets (PNN))	level of methylation at H3K9me3 (H3K9me3)	level of methylation at H4K20me3 (H4K20me3)	anxiety-depression like behavior (central square time) (old mice (~20 months) [5])	locomotor activity (distance travelled, speed and immobile time) (old mice (~20 months) [5])	SOX2 expression (Sox2)
Nc1nc2ncc(CNc3ccc(C(=O)N[C@@H](CCC(=O)O)C(=O)O)cc3)nc2c(=O)[nH]1 [folate, folic acid]	increase	increased	not significant changes	improvement	neither found differences	subtle but non-significant tendency of increase	subtle but non-significant tendency of increase	subtle but non-significant tendency of increase	significant changes	important tendency	important tendency	not significant differences	improves	significant reduction	does not modify	does not modify	improvement	improvement	–
CTVRTSAEC (source 1..9: organism (original language) = constructo sintetico) [FRa binding peptide]	increase	–	–	–	–	–	–	–	–	–	–	Not significant differences	significant improvement	reducing the density	–	–	–	–	significant increase
Vitamin B12	–	–	–	not revealed significant differences	–	–	–	–	–	–	–	not revealed significant differences	not revealed significant differences	–	–	–	not revealed any alteration	not revealed any alteration	–
